According to PubChem BioAssay AID743136 (Broad Institute, 2013):
“And” between values parts separate entries of the source, which are not always exact repeats. Identical values can stand only once. The source made the active and inactive calls.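 Rule for the calls: active = valid fitted curve with falling viability signal and AC50 at most twice the top tested concentration; inconclusive = flat curve with 30 to 70% signal loss, or poor fit; inactive = the rest, including opposite-direction effects.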

system: HepG2 viability, CellTiter-Glo ATP luminescence, 72 h; experiment: HepG2 cell cytotoxicity, dose response, cytotoxicity control, ATP luminescence, dry powder, Set2, 50 µM top (AID 743136); conditions: not given

| Structure (SMILES) | AC50 |
| --- | --- |
| Cc1c(C(=O)O)sc2nc(/C=C/c3cccnc3N)[nH]c(=O)c12 | > 24 µM (inactive) |
| Cc1c(C(=O)O)sc2nc(/C=C/c3cccc(OC(F)(F)F)c3)[nH]c(=O)c12 | > 100 µM (inactive) |

system: not listed separately; experiment: as above; conditions: HepG2 viability, CellTiter-Glo ATP luminescence, 72 h; at 1.2 µM (top of the series)

| Structure (SMILES) | activity change, negative = cytotoxicity |
| --- | --- |
| Cc1c(C(=O)O)sc2nc(/C=C/c3ccc(O)cn3)[nH]c(=O)c12 | -0.612% (inactive) |

same assay, conditions: HepG2 viability, CellTiter-Glo ATP luminescence, 72 h; at 12 µM (top of the series)

| Structure (SMILES) | activity change, negative = cytotoxicity |
| --- | --- |
| Cc1c(C(=O)O)sc2nc(/C=C/c3ccc4[nH]ccc4n3)[nH]c(=O)c12 | 2.05% (inactive) |

same assay, conditions: HepG2 viability, CellTiter-Glo ATP luminescence, 72 h; at 46 µM (top of the series)

| Structure (SMILES) | activity change, negative = cytotoxicity |
| --- | --- |
| Cc1c(C(=O)O)sc2nc(/C=C/c3cccc(O)c3)[nH]c(=O)c12 | 1.28% (inactive) |

same assay, conditions: HepG2 viability, CellTiter-Glo ATP luminescence, 72 h; at 50 µM (top of the series)

| Structure (SMILES) | activity change, negative = cytotoxicity |
| --- | --- |
| Cc1c(C(=O)O)sc2nc(/C=C/c3ccccc3O)[nH]c(=O)c12 | -7.61% (inactive) |
| Cc1c(C(=O)O)sc2nc(/C=C/c3cnc4ccccc4c3)[nH]c(=O)c12 | -18.5% (inactive) |
| Cc1c(C(=O)O)sc2nc(/C=C/c3cccc(N4CCNCC4)c3)[nH]c(=O)c12 | -21% (inactive) |
| Cc1c(C(=O)O)sc2nc(/C=C/c3cccc(O)c3)[nH]c(=O)c12 | -10.4% (inactive) and -7.42% (inactive) |
| Cc1c(C(=O)O)sc2nc(/C=C/c3ccc4ccccc4c3)[nH]c(=O)c12 | -8.19% (inactive) |
| Cc1c(C(=O)O)sc2nc(CCc3cccc(O)c3)[nH]c(=O)c12 | -14.1% (inactive) |
| Cc1c(C(=O)O)sc2nc(/C=C/c3ccccc3)[nH]c(=O)c12 | -17.2% (inactive) |
| Cc1c(C(=O)O)sc2nc(/C=C/C=C/c3ccccc3)[nH]c(=O)c12 | 20.1% (inactive) |
| Cc1c(C(=O)O)sc2nc(/C=C/c3cccc([N+](=O)[O-])c3)[nH]c(=O)c12 | -30.8% (inactive) |
| Cc1c(C(=O)O)sc2nc(/C=C/c3cccc(F)c3)[nH]c(=O)c12 | -10.3% (inactive) |
| Cc1c(C(=O)O)sc2nc(/C=C/c3cccc(=O)[nH]3)[nH]c(=O)c12 | -1.32% (inactive) |
| Cc1c(C(=O)O)sc2nc(/C=C/c3ccc(N)nc3)[nH]c(=O)c12 | -9.16% (inactive) |
| Cc1c(C(=O)O)sc2nc(/C=C/c3ccccn3)[nH]c(=O)c12 | -16.2% (inactive) |
| Cc1c(C(=O)O)sc2nc(/C=C/c3ccc4cc[nH]c4c3)[nH]c(=O)c12 | -21% (inactive) |
| Cc1c(C(=O)O)sc2nc(/C=C/c3cc4ccccc4cn3)[nH]c(=O)c12 | -5.12% (inactive) |
| Cc1c(C(=O)O)sc2nc(/C=C/c3ccncc3)[nH]c(=O)c12 | -2.2% (inactive) |
| Cc1c(C(=O)O)sc2nc(/C=C/c3ccnc4ccccc34)[nH]c(=O)c12 | -5.63% (inactive) |
| Cc1c(C(=O)O)sc2nc(/C=C/c3cccc(C(=O)O)c3)[nH]c(=O)c12 | -5.9% (inactive) |
| Cc1c(C(=O)O)sc2nc(/C=C/c3cccc(N4CCOCC4)n3)[nH]c(=O)c12 | -4.25% (inactive) |
| Cc1c(C(=O)O)sc2nc(/C=C/c3cccnc3)[nH]c(=O)c12 | -15.4% (inactive) |
| Cc1c(C(=O)O)sc2nc(/C=C/c3cccc(C(N)=O)c3)[nH]c(=O)c12 | -16.7% (inactive) |
| COc1cccc(/C=C/c2nc3sc(C(=O)O)c(C)c3c(=O)[nH]2)c1 | -15.1% (inactive) |
| Cc1c(C(=O)O)sc2nc(/C=C/c3cccc(N)c3)[nH]c(=O)c12 | -6.41% (inactive) |
| Cc1c(C(=O)O)sc2nc(/C=C/c3cccc(C(F)(F)F)c3)[nH]c(=O)c12 | -10.9% (inactive) |
| Cc1c(C(=O)O)sc2nc(/C=C/c3ccc4[nH]ccc4c3)[nH]c(=O)c12 | 1.56% (inactive) |
| Cc1c(C(=O)O)sc2nc(/C=C/C3CC3)[nH]c(=O)c12 | -1.5% (inactive) |
